PMC11180795 (Frontiers in Pharmacology, 2024)

Key:
[1] = Cytotoxicity MTT assay on RAW 264.7 cells; format: cell-based, Murine; conditions: mouse, RAW 264.7 macrophage cells, 48 h incubation, read-out: IC50, cytotoxic effect on RAW264.7 cells
Protocol: Murine macrophage RAW 264.7 cell line obtained from the American Type Culture Collection (Rockville, MD, United States) was maintained in DMEM supplemented with 10% fetal calf serum (FCS) and 1% penicillin/streptomycin/fungizone (PSF) under standard cell culture conditions at 37°C and 5% CO2 in a humidified environment.
The cytotoxic effect of compounds on RAW 264.7 cells was assessed using the 3-(4, 5-dimethylthiazol-2-yl)-2, 5-diphenyl tetrazolium bromide (MTT) assay as established by Mosmann ([Mosmann, 1983]) with slight modifications. Briefly, cells were seeded at a density of 1 × 10^5 cells/mL (100 µL) in 96-well microtitre plates and incubated at 37°C and 5% CO2 in a humidified environment. After 24 h incubation, 100 µL of compounds (at concentration ranged from to 250 μM–1.95 µM) were added to the wells containing cells and further incubated for 48 h in a CO2 incubator. A suitable control (untreated cells) was included and doxorubicin was used as a positive reference. Thereafter, the medium in each well was aspirated from the cells, which were then washed with PBS, and finally fresh medium (200 µL) was added to each well. Then, 30 µL of MTT (5 mg/mL in PBS) was added to each well and the plates were incubated at 37°C for 4 h. The medium was aspirated from the wells and DMSO was added to solubilize the formed formazan crystals. The absorbance was read at 570 nm (SpectraMax 190, Molecular devices). The percentage of cell inhibition was calculated with reference to the control (untreated cells taken as 100% viability). Then, the IC50 values of plant compounds showing more than 50% cell growth inhibition were calculated by plotting the percentage inhibition against the concentration.

[2] = system: NO production in LPS-activated RAW 264.7 macrophages; test: Inhibition of nitric oxide (NO) production in LPS-activated RAW 264.7 macrophages (Griess reagent); format: cell-based, Murine; conditions: for amount of NO produced: compound at 25 µM, LPS 1 μg/mL, 24 h, untreated and stimulated control 6.08 µM
Protocol: Murine macrophage RAW 264.7 cell line obtained from the American Type Culture Collection (Rockville, MD, United States) was maintained in DMEM supplemented with 10% fetal calf serum (FCS) and 1% penicillin/streptomycin/fungizone (PSF) under standard cell culture conditions at 37°C and 5% CO2 in a humidified environment. The RAW 264.7 macrophage cells were seeded in 96 well-microtitre plates (2 × 10^5 cells/mL). They were activated by incubation in a medium containing 1 μg/mL LPS alone (control) or lipopolysaccharide, and compounds at concentration of 3.12 µM, 6.25 µM, 12.5 µM and 25 µM dissolved in DMSO. […] After 24h, the amount of nitric oxide released from macrophages was determined using the Griess reagent as previously described ([Dzoyem and Eloff, 2015]).

[3] = biological target: T1, 15-lipoxygenase from Glycine max (Glycine max, UniProt P08170); test: Soybean 15-LOX inhibition assay (ferrous oxidation-xylenol orange); format: biochemical; conditions: linoleic acid 140 µM, pH 7.4, 25°C
T1 construct: purchased Sigma (Germany)
T1 sequence (P08170 1-839): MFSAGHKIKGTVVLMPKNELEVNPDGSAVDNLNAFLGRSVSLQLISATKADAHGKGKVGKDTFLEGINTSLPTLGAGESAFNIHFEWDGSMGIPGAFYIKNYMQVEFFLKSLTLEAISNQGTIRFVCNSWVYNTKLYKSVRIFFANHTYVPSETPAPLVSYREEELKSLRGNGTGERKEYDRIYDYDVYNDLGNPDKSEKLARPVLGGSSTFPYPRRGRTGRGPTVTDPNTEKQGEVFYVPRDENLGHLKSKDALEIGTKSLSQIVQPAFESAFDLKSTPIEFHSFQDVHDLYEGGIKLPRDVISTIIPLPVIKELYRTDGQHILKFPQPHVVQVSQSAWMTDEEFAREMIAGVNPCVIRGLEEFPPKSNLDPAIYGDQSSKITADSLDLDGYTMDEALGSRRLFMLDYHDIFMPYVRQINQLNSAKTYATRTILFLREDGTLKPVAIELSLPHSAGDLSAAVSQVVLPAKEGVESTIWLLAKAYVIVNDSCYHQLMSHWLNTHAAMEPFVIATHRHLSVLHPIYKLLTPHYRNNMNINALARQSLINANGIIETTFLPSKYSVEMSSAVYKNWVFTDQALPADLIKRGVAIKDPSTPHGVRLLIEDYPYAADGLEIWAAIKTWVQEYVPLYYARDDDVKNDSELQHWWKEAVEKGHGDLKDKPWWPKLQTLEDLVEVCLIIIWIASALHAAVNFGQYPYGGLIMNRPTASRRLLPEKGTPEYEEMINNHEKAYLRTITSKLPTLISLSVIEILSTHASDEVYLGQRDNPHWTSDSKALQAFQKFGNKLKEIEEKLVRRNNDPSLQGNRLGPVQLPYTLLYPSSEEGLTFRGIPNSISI
Protocol: The assay was performed according to a previously described procedure ([Pinto et al., 2007]) with slight modifications. The assay is based on measuring the formation of the complex Fe3^+/xylenol orange in a spectrophotometer at 560 nm. 15-LOX from G. max was incubated with compounds or standard inhibitors at 25°C for 5 min. The concentration range of the samples were from 250 μM to 1.95 µM. Then linoleic acid (final concentration, 140 µM) in Tris-HCl buffer (50 mM, pH 7.4) was added and the mixture was incubated at 25°C for 20 min in the dark. The assay was terminated by the addition of 100 µL of FOX reagent consisting of sulfuric acid (30 mM), xylenol orange (100 µM), iron (II) sulfate (100 µM) in methanol/water (9:1). For the control, only LOX solution and buffer were pipetted into the wells. Blanks (background) contained the enzyme LOX during incubation, but the substrate (linoleic acid) was added after the FOX reagent. […] The LOX inhibitory activity was evaluated by calculating the percentage of the inhibition of hydroperoxide production from the changes in absorbance values at 560 nm after 30 min at 25°C. % inhibition = [(Acontrol – Ablank) – (Asample – Ablank)/(Acontrol – Ablank)] x100. Where Acontrol is the absorbance of control well, Ablank is the absorbance of blank well and Asample is the absorbance of sample well.

TNF-α = test: Th1/Th2 cytokine measurement (Cytometric Bead Array) in LPS-stimulated Raw 264.7 cells, TNF-α; format: cell-based, Murine; conditions: compound at 20 µM; for effect on TNF-α production (in words): vs stimulated and untreated control
Protocol: Raw 264.7 cells were seeded at 2 × 10^5 cells/mL in a 48-well microplate and allowed to adhere for 24 h, then treated with LPS 0.1 μg/mL and with compounds (1), (5) and (6) at 20 µM. Untreated cells and indomethacin (10 µM) were used as controls. After 24 h of incubation, the supernatant was collected and the amount of pro-inflammatory Th1 cytokines (IFN-γ, TNF-α, and IL-2) and anti-inflammatory Th2 cytokines (IL-4, IL-6, and IL-10) released measured. The experiment was performed according to the manufacturer’s instructions using BD™ Cytometric Bead Array (CBA) […] Th1/Th2 Cytokine Kit (BD-Biosciences), and data were acquired on a BD LSR Fortessa™ cell analyzer flow cytometer.

| IC50 [3] | SMILES | IC50 at 48 h [1] | inhibitory effect on NO production at the highest concentration (in words) ([2]; 25 µM, LPS-stimulated RAW 264.7) | TNF-α level (TNF-α; LPS 0.1 μg/mL, 24 h, stimulated untreated control 4356.86 pg/mL) | amount of NO produced [2] | effect on TNF-α production (in words) (TNF-α) |
| --- | --- | --- | --- | --- | --- | --- |
| 63.9 µM | CC(C)=CCc1c2c(c3oc4c(O)cccc4c(=O)c3c1O)C=CC(C)(C)O2 [Compound 1, Ananixanthone] | > 100 µM | remarkable inhibitory effect | 3854.61 pg/mL |  |  |
| 45 µM | CC(C)=CCC/C(C)=C/C[C@]12C[C@@H](CC=C(C)C)C(C)(C)[C@](C/C=C(\C)CCC=C(C)C)(C(=O)C(C(=O)c3ccc(O)c(O)c3)=C1O)C2=O [Compound 5, Guttiferone O] | 64.5 µM |  |  | 0.3 µM | significantly reduces |
| 53 µM | CC(C)=CCC/C(C)=C/C[C@]12C[C@@H](CC=C(C)C)C(C)(C)[C@](CC=C(C)C)(C(=O)C(C(=O)c3ccc(O)c(O)c3)=C1O)C2=O [Compound 6, Guttiferone M] | 61.2 µM |  |  | 0.54 µM | moderate decrease |
